Assay results as given in PMC9220922, “Givinostat-Liposomes: Anti-Tumor Effect on 2D and 3D Glioblastoma Models and Pharmacokinetics” (Cancers, 2022).
pIC50: −log10 of the molar value.

Legend:
[1] = Brain penetration after i.v. injection (LC-MS/MS); type: in vivo, Swiss CD1 mice; settings: mice
Experimental: (§1) Mice were sacrificed at different time points up to 48 h after the injection and blood and brain were harvested. Blood was collected from the cava vein in tubes coated with Li-heparin anticoagulant and centrifuged at +4 °C, 3000 g for 10 min to obtain the plasma. After blood collection, brain was harvested, washed in saline, dried on absorbent paper, weighed, and placed into appropriate tubes. All samples were analyzed for their Givinostat content using the LC-MS/MS method. Stock solution of Givinostat, […]2375 (metabolites), and internal standard ITF2400 were prepared in ACN/water 1:1 at 1 mg/mL. Working solutions were prepared by sequential dilution in water:ACN 8:2. Brains were homogenized in 20 mM ammonium formate buffer (1 g/5 mL). In total, 45 μL of blank plasma or brain homogenates was added to 200 μL of ACN containing ITF2400 at 25 ng/mL and acted as internal standards. Samples were vortexed for 3 min and centrifuged for 10 min at 5 °C at […]. Samples were transferred into a 96-well plate, dried under nitrogen flow, and resuspended in 200 μL 0.1% FA H2O/ACN (75:25). After vortexing, samples were injected into LC-MS/MS. Samples were analyzed on a UPLC Acquity (Waters, Milford, MA, USA) coupled with an API 3200 Triple Quadrupole (ABSciex). Mobile phases were water and ACN with 0.1% FA on a Kinetex 2.6 μm C18 100 A 75 × 3 mm (Phenomenex, Torrance, CA, USA). Analytes were quantified in MRM ESI positive mode. […] Pharmacokinetic parameters were calculated using Excel Add in (PK Solver 2.0, Excel 2007 Microsoft add in). AUCs were calculated using an NCA by the linear trapezoidal rule, and a uniform weight was performed as a first approach. Graphical concentration-time curves were produced after Log transformation. The ke was estimated from the terminal part of the log-concentration-time plot including at least three data points excluding the Cmax.

[2] = MTT cytotoxicity, healthy astrocytes; type: cell-based; settings: human, normal human astrocytes (NHA), doses between 0.1 and 10 μM, read-out: cell viability
Experimental: (§2) Gli36ΔEGFR-2 and U87-MG were used as GBM in vitro models. Gli36ΔEGFR [27, 28], carrying the EGFRvIII mutation, was made resistant to TMZ after 1 month of in vitro exposure to 50 µM TMZ [29]. These cells were selected because the TMZ sensitivity was repeatedly tested in vitro and in vivo in orthotopic GBM models. Both Gli36ΔEGFR-2 and U87-MG were maintained in Dulbecco’s Modified Eagle Medium (DMEM) High Glucose w/o sodium pyruvate (ECM0101L, Euroclone, Milan, Italy) supplemented with 10% fetal bovine serum (FBS, ECS0180L, Euroclone, Milan, Italy), 4 mM L-glutamine (ECB3000D, Euroclone, Milan, Italy), and 100 U ml^−1 penicillin/streptomycin (P/S) (ECB3001B, Euroclone, Milan, Italy). Normal human astrocytes (NHAs, CC-2565, Lonza, Basel, Switzerland) were used as healthy astrocytes and maintained in AGM^TM Astrocyte Growth Medium BulletKit^TM (CC-3186, Lonza) as per the manufacturer’s protocol. Human cerebral microvascular endothelial cells (hCMECs), provided by Dr. S. Bourdoulous (Institut Cochin, Inserm, Paris, France), were used as a model of brain endothelial cells and cultured as reported in the literature. […]
(§3) The effect of free or encapsulated Givinostat was assessed by the MTT assay. […] At the designated times, the assay was performed as per the manufacturer’s protocol and absorbance was measured at 570 nm using a microplate reader (SPECTROstar Nano, BMG LABTECH, Ortenberg, Germany). […]

[3] = Plasma pharmacokinetics after i.v. injection (LC-MS/MS); type: in vivo; settings: Swiss CD1, mouse, iv, mice
Experimental: as §1

LDLR = experiment: Immunoblot of receptor level in Gli36ΔEGFR-2; type: cell-based, human; settings: Western blot; Figure 8 legend: LIP-GIV
Experimental: (§4) Whole cell lysates were obtained by washing cells twice in cold PBS and harvesting in 60 μL of radioimmunoprecipitation assay (RIPA) buffer (cat. no. 89901, ThermoFisher) supplemented with 1% of protease and phosphatase inhibitor cocktail (cat. no. 78446, ThermoFisher). Whole cell lysates were quantified using a BCA Protein Assay Kit (cat. No. 23227, ThermoFisher) and separated by electrophoresis through precast gels (NuPAGE^TM 4–12% Bis-Tris, 1.0 mm, Mini Protein Gel 10 or 15-wells, cat. No. NP0321 and NP0323, ThermoFisher).
(§5) Proteins were transferred to nitrocellulose membranes using iBlot^TM Transfer Stack (cat. No. IB301002, ThermoFisher) and membranes were blocked either in 5% milk or in 5% BSA in TBS with 0.1% Tween-20 (TBST) for 1 h. Membranes were then incubated overnight at 4 °C with the following primary antibodies: Acetyl-α-Tubulin (5335, 1:1000), α-Tubulin (2144, 1:1000), Histone H3 (9715, 1:1000) and β-Tubulin (2146, 1:1000) purchased from CST; β-Actin (MA5-15739, 1:5000), GAPDH (MA1-16757, 1:5000), VLDLR (MA5-24790, 1:1000), ABCA1 (PA1-16789, 1:500), LRP1 (MA1-27198, 1:500), and LDLR (PA5-22976, 1:1000) purchased from ThermoFisher. Membranes were incubated with secondary anti-rabbit antibody (A0545, 1:5000, Merck) or anti-mouse antibody (G21040, 1:20,000, Invitrogen) for 1 h at RT. Bands were detected using Immobilion ECL Ultra Western HRP Substrate (WBULS0100, Merck) under chemiluminescence using an Amersham Imager 600 (Cytiva, Marlborough MA, USA). Quantifications were made using ImageLab Software Version 6.1 (Bio-Rad, www.bio-rad.com).

LRP1 = experiment: Immunoblot of receptor level in Gli36ΔEGFR-2; type: cell-based, human; settings: Western blot; Figure 8 legend: LIP-GIV
Experimental: as §4, §5

VLDLR = experiment: Immunoblot of receptor level in Gli36ΔEGFR-2; type: cell-based, human; settings: Western blot; Figure 8 legend: LIP-GIV
Experimental: as §4, §5

ABCA1 = experiment: Immunoblot of ABCA1 level in Gli36ΔEGFR-2; type: cell-based, human; settings: Western blot; Figure 8 legend: LIP-GIV, 24 h
Experimental: as §4
Proteins were transferred to nitrocellulose membranes using iBlot^TM Transfer Stack (cat. No. IB301002, ThermoFisher) and membranes were blocked either in 5% milk or in 5% BSA in TBS with 0.1% Tween-20 (TBST) for 1 h. […] Bands were detected using Immobilion ECL Ultra Western HRP Substrate (WBULS0100, Merck) under chemiluminescence using an Amersham Imager 600 (Cytiva, Marlborough MA, USA). Quantifications were made using ImageLab Software Version 6.1 (Bio-Rad, www.bio-rad.com).

Gli36ΔEGFR-2 = experiment: MTT cytotoxicity, GBM cells; type: cell-based; settings: Homo sapiens, 24 h of treatment, read-out: mean calculated IC50
Experimental: as §2, §3

T98G = test system: T98G; design: method as in PMID 25053824; settings: cited from earlier work
U87-MG = test system: U87-MG; design: method as in PMID 25053824; settings: cited from earlier work

CCN(CC)Cc1ccc2cc(COC(=O)Nc3ccc(C(=O)NO)cc3)ccc2c1 [Givinostat, [6-diethylaminomethyl) naphtalen-2-yl] methyl N-[4-(hydroxycarbamoyl) phenyl] carbamate]
Kp ([1]; Swiss CD1, mouse, brain and plasma, iv, 7.5 mg/kg single i.v., read-out: AUCbrain/AUCplasma ratio): 0.372
concentration at 5 min ([1]; Swiss CD1, mouse, brain, iv, 7.5 mg/kg i.v., 5 min, read-out: Givinostat brain level): 102 ng/g
concentration at 10 min ([1]; Swiss CD1, mouse, brain, iv, 7.5 mg/kg i.v., 10 min, read-out: Givinostat brain level): 101 ng/g
concentration at 0.25 h ([1]; Swiss CD1, mouse, brain, iv, 7.5 mg/kg i.v., 0.25 h, read-out: Givinostat brain level): 90 ng/g
concentration at 0.5 h ([1]; Swiss CD1, mouse, brain, iv, 7.5 mg/kg i.v., 0.5 h, read-out: Givinostat brain level): 83 ng/g
concentration at 1 h ([1]; Swiss CD1, mouse, brain, iv, 7.5 mg/kg i.v., 1 h, read-out: Givinostat brain level): 44 ng/g
concentration at 2 h ([1]; Swiss CD1, mouse, brain, iv, 7.5 mg/kg i.v., 2 h, read-out: Givinostat brain level): 30 ng/g
concentration at 4 h ([1]; Swiss CD1, mouse, brain, iv, 7.5 mg/kg i.v., 4 h, read-out: Givinostat brain level): 13 ng/g
concentration at 6 h ([1]; Swiss CD1, mouse, brain, iv, 7.5 mg/kg i.v., 6 h, read-out: Givinostat brain level): 7 ng/g
Cmax ([1]; Swiss CD1, mouse, brain, iv, 7.5 mg/kg single i.v.): ~100 ng/g
Givinostat brain level ([1]; 7.5 mg/kg i.v., 24 h): below detection limits
viability at 24 h [2]: ≥ 100%
concentration at 5 min ([3]; 7.5 mg/kg i.v., 5 min, read-out: Givinostat plasma level): 1030 ng/mL
concentration at 10 min ([3]; 7.5 mg/kg i.v., 10 min, read-out: Givinostat plasma level): 597 ng/mL
concentration at 0.25 h ([3]; 7.5 mg/kg i.v., 0.25 h, read-out: Givinostat plasma level): 431 ng/mL
concentration at 0.5 h ([3]; 7.5 mg/kg i.v., 0.5 h, read-out: Givinostat plasma level): 256 ng/mL
concentration at 1 h ([3]; 7.5 mg/kg i.v., 1 h, read-out: Givinostat plasma level): 75 ng/mL
concentration at 2 h ([3]; 7.5 mg/kg i.v., 2 h, read-out: Givinostat plasma level): 19 ng/mL
concentration at 4 h ([3]; 7.5 mg/kg i.v., 4 h, read-out: Givinostat plasma level): 6 ng/mL
concentration at 6 h ([3]; 7.5 mg/kg i.v., 6 h, read-out: Givinostat plasma level): 4 ng/mL
MRT last ([3]; 7.5 mg/kg single i.v., read-out: mean residence time (MRT0-t)): 0.6 h
clearance ([3]; 7.5 mg/kg single i.v., read-out: plasma clearance (CL) (converted)): 257 mL/min/kg
AUC(0-t) ([3]; 7.5 mg/kg single i.v., read-out: plasma exposure (AUC0-t)): 478 ng·h/mL
Vd ([3]; 7.5 mg/kg single i.v., read-out: volume of distribution): 10.8 L/kg
half-life ([3]; Givinostat 7.5 mg/kg single i.v., read-out: half-life (t1/2) (converted)): 1.7 h
LDLR protein level (LDLR): significantly reduced
LRP1 protein level (LRP1): significantly reduced
VLDLR protein level (VLDLR): significantly reduced
ABCA1 expression (ABCA1): non-significant trend towards a decrease
pIC50 (Gli36ΔEGFR-2): 6.12

Cn1nnc2c(C(N)=O)ncn2c1=O [TMZ, temozolomide]
pIC50 (T98G): 3.30 to 4.00
pIC50 (U87-MG): 3.30 to 4.00
